Measured values from patent US8658226B2, “Agent having anti-Helicobacter pylori activity” (Japan Royal Jelly Co., Ltd., priority 2008, dated 2014).
Converted amounts (≈) assume the structure as drawn.

Tested on: Helicobacter pylori
Experiment: Measurement of anti-Helicobacter pylori activity by the paper disk method
Assay type: cell-based
Experimental: Measurement of anti-Helicobacter pylori activity was carried out by the paper disk method using Helicobacter pylori agar culture medium (Pore […] Chemical). After coating Helicobacter pylori over the entire surface of this medium, a thick circular piece of filter paper (Advantec) having a diameter of 8 mm impermeated with 60 μl of extract was placed on the medium followed by culturing in the presence of 10% carbon dioxide gas. After culturing for 3 to 4 days, the size of the zone of inhibition of Helicobacter pylori growth formed around the filter paper was observed. A piece of filter paper impermeated with chloramphenicol (CM, 100 μg/ml) was also placed on the medium as a positive control, while a piece of filter paper impermeated with PBS was placed on the medium as a negative control.

MIC (Helicobacter pylori, assumed from paper disk method, read-out: minimum inhibitory concentration (MIC)): ~5 mg/L (≈ 15.5 µM)
SMILES: O=C(N[C@H](CO)[C@H](O)c1ccc([N+](=O)[O-])cc1)C(Cl)Cl [chloramphenicol]
antibacterial activity of chloramphenicol (at a concentration of 5 μg/ml): essentially no longer observed
